{
  "source": "paper PMC8007111",
  "about": "“Novel Potent Muscarinic Receptor Antagonists: Investigation on the Nature of Lipophilic Substituents in the 5- and/or 6-Positions of the 1,4-Dioxane Nucleus” (Journal of Medicinal Chemistry, 2020)",
  "key": {"hM4 mAChR": {"molecular_target": "T1, hM4 mAChR (Homo sapiens, UniProt P08173)", "T1 construct": "expressed in transfected cells; host or cells: CHO-K1 (membrane preparation)", "T1 sequence (P08173 1-479)": "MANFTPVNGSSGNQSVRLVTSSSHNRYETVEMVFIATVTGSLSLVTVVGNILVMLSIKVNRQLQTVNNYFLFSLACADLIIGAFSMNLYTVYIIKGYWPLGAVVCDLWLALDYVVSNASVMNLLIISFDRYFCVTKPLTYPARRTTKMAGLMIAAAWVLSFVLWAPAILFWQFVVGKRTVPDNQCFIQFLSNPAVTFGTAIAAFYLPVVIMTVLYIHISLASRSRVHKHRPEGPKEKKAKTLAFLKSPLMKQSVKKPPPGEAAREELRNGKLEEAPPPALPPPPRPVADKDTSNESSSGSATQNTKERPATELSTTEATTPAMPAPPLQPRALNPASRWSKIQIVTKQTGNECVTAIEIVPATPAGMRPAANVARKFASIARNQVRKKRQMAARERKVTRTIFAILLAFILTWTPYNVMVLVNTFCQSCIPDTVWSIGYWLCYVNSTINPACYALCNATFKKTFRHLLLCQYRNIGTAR", "assay": "[3H]NMS inhibition radioligand binding, hM4 in CHO-K1 cell membranes", "details": "[3H]NMS, CHO-K1 cell membranes; mean ± S.E.M."}, "hM1 mAChR": {"molecular_target": "T2, hM1 mAChR (Homo sapiens, UniProt P11229)", "T2 construct": "expressed in transfected cells; host or cells: CHO-K1 (membrane preparation)", "T2 sequence (P11229 1-460)": "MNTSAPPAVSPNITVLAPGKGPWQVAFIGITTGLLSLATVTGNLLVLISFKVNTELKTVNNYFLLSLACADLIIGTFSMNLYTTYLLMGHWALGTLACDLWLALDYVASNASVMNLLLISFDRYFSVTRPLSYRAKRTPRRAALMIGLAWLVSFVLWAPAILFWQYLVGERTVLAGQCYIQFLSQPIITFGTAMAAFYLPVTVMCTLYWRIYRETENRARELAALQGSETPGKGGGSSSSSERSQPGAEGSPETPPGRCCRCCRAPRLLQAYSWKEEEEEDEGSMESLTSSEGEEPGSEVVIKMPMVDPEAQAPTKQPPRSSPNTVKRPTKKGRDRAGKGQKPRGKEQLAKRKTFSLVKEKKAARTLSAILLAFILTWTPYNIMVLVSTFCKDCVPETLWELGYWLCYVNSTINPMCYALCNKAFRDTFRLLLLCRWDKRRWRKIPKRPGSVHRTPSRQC", "assay": "[3H]NMS inhibition radioligand binding, hM1 in CHO-K1 cell membranes", "details": "[3H]NMS, CHO-K1 cell membranes; mean ± S.E.M."}, "hM3 mAChR": {"molecular_target": "T3, hM3 mAChR (Homo sapiens, UniProt P20309)", "T3 construct": "expressed in transfected cells; host or cells: CHO-K1 (membrane preparation)", "T3 sequence (P20309 whole entry)": "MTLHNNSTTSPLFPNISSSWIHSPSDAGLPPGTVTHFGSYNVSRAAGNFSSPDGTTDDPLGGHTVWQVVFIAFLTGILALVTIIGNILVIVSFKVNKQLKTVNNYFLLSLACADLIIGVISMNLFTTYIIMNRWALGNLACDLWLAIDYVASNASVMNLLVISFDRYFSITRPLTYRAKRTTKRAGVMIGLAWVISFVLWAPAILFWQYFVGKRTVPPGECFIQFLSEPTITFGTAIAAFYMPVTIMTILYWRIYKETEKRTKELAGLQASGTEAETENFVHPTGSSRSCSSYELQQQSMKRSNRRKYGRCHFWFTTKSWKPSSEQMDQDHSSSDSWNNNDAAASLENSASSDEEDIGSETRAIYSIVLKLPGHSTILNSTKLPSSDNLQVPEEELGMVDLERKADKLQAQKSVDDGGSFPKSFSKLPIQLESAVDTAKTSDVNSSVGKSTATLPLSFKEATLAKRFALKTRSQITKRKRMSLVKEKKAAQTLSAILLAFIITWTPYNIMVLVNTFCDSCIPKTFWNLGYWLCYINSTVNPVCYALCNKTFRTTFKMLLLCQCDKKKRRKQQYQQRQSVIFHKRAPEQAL", "assay": "[3H]NMS inhibition radioligand binding, hM3 in CHO-K1 cell membranes"}, "hM2 mAChR": {"molecular_target": "T4, hM2 mAChR (Homo sapiens, UniProt P08172)", "T4 construct": "expressed in transfected cells; host or cells: CHO-K1 (membrane preparation)", "T4 sequence (P08172 1-466)": "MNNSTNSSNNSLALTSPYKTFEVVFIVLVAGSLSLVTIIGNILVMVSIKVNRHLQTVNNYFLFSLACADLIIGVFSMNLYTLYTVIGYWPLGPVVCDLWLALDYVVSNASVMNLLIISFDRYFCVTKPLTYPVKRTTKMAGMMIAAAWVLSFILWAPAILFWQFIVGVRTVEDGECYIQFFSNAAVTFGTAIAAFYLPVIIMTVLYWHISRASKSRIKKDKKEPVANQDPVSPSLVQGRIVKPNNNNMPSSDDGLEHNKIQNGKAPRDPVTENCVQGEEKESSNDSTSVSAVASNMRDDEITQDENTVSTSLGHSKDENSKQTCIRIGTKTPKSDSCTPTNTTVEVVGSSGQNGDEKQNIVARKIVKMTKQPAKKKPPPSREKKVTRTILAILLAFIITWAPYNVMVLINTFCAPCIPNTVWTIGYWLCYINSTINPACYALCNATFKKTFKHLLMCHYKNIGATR", "assay": "[3H]NMS inhibition radioligand binding, hM2 in CHO-K1 cell membranes", "details": "[3H]NMS, CHO-K1 cell membranes; mean ± S.E.M."}},
  "data": [
    {"smiles": "C[N+](C)(C)C[C@@H]1COC[C@](c2ccccc2)(C2CCCCC2)O1.[I-]", "note": "(relative stereo) [3b, 1-((2R*,6R*)-6-Cyclohexyl-6-phenyl-1,4-dioxan-2-yl)-N,N,N-trimethylmethanaminium Iodide]", "values": [
      {"measurement": "pKi hM4", "setting": "hM4 mAChR", "result": "9.03 ± 0.16"},
      {"measurement": "pKi hM1", "setting": "hM1 mAChR", "result": "9.28 ± 0.19"},
      {"measurement": "pKi hM3", "setting": "hM3 mAChR; [3H]NMS, CHO-K1 cell membranes, mean ± S.E.M.", "result": "9.07 ± 0.03"},
      {"measurement": "M3/M2 selectivity ratio", "setting": "hM3 mAChR; from binding affinities at hM3 and hM2", "result": 14.5},
      {"measurement": "pKi hM2", "setting": "hM2 mAChR", "result": "7.91 ± 0.13"}
    ]}
  ]
}
